# Assay results from patent publication US20260325464A1, “COMPOSITIONS FOR MODULATING THE EXPRESSION OF AQUAPORINS IN NEURODEGENERATIVE DISORDERS” (priority 2023, published 2026).
# Marks after values point to notes of the source that are not given here.
# What was measured:
# Assay type in all cases: in vivo, rat
# substantia nigra = assay: Brain histopathology of substantia nigra, reserpine Parkinson's model
# Text: (§1) The brain histopathology was done for all the experimental groups. The brain tissue was fixed in 10% buffered neutral formalin solution. The tissue was embedded in paraffin, sectioned at […] stained with hematoxylin and eosin (H&E). The sections were examined under light microscope to study the architecture of the brain tissue, and then photomicrographs were taken (Fischer A H, Jacobson K A, Rose J, Zeller R. Hematoxylin and eosin staining of tissue and cell sections. CSH Protoc. 2008:1;pdb.prot4986. doi: 10.1101/pdb.prot4986).
# (§2) The induction of Parkinson's disease and measurement of other parameters were done as per the reported protocol (Santos et al., Cognitive, motor and tyrosine hydroxylase temporal impairment in a model of parkinsonism induced by reserpine. Behav Brain Res. 2013; 253:68-77 and Shishehbore et al. A novel kinetic spectrophotometric method for the determination of dopamine in biological and pharmaceutical samples. J Chem. 2013; 2013:1-6). Induction of Parkinson's disease was done by administering Resperine, which inhibits the monoamine vesicular transporters, thus decreasing the levels of monoamine neurotransmitters in the brain. Following pretreatment for 14 days with Gingerenone A, the rat groups received subcutaneous injections of reserpine (4 mg/kg) for the final five days of the treatment regimen. Resperine (5 mg) was dissolved in 1 ml of 1% acetic acid and then diluted tenfold with distilled water to achieve a final concentration of 500 μg/ml. The normal control group received saline with 1% acetic acid for 14 days, administered from day 10 to day 14. Thirty minutes following the administration of reserpine on the 14th day, behavioural assessments were conducted using the Open Field test, Y Maze, and Catalepsy tests to evaluate changes. […] Upon completion of the study, brains were harvested for biochemical analyses and histopathological studies. The experimental group is depicted in table 10.
# Dopamine = Dopamine in brain (kinetic spectrophotometric), reserpine Parkinson's model; conditions: for Dopamine: p.o. + Reserpine (4 mg/kg, s.c.), brain, Mean ± SEM, n = 6
# Text: as §2
# Dopamine—Studies have shown that symptoms of Parkinson's develop in patients with an 80 percent or greater loss of dopamine-producing cells in the substantia nigra. Normally, dopamine operates in a delicate balance with other neurotransmitters to help coordinate the millions of nerve and muscle cells involved in movement. Neurons of the substantia nigra communicate with neurons of the basal ganglia by liberating the neurotransmitter dopamine (DA). Such an interaction at the biochemical level is responsible for the fine tuning of the movements. The proposed method for the estimation of dopamine is based on inhibitory effect of dopamine on the oxidation of thionine by bromate in acidic media. The change in absorbance was recorded spectrophotometrically at 601 nm (Shishehbore et al., Novel Kinetic Spectrophotometric Method for the Determination of Dopamine in Biological and Pharmaceutical Samples. 2013. Article ID 819460, https://doi.org/10.1155/2013/819460).
# Fibrinogen = assay: Inflammatory marker fibrinogen (ELISA), AlCl3 Alzheimer's model; conditions: for Fibrinogen: p.o. + AlCl3 (100 mg/kg, i.p.), Mean ± SEM, n = 6
# Text: (§3) The inflammatory markers Fibrinogen, IL-1β were estimated using ELISA kit (Krishgen Biosystems, India).
# Alzheimer's disease = assay: Elevated plus maze (EPM) test in rats with AlCl3-induced Alzheimer's disease; conditions: for EPM at 16th day Transfer Latency / EPM at 17th day Transfer Latency: p.o. + AlCl3 (100 mg/kg, i.p.), Mean ± SEM, n = 6
# Experimental: Elevated plus maze (EPM)—Elevated plus maze (EPM)—This test was performed as per reported protocol (Bhuvanendran et al., Amelioration of cognitive deficit by Embelin in a Scopolamine-induced Alzheimer's disease-like condition in a rat model. Front Pharmacol. 2018:9(6):1-12 and Biradar et al., (2020) Experimental validation and network pharmacology evaluation to decipher the mechanism of action of Erythrina variegata L. bark against scopolamine-induced memory impairment in rats. Adv Tradit Med. 2020:26:1-4). EPM contains 2 closed and 2 open arms (four arms; equal dimensions of 50×10 cm). These 4 arms connect at central with a 10×10 cm square gap as an initial point. The transfer latency (TL) was recorded via stopwatch by keeping rats independently toward one side of the open arm. The EPM TL cut-off was set to 60 s throughout the study. […] Index of memory improvement is measured as a drop of transfer Latency (TL) by test drug.
# The elevated plus maze is a test that is widely used to assess the anti-anxiety effects of test substances. As the test measures open arm activity, an increase in open arm activity (duration and/or entries) reflects anti-anxiety behaviour (Walf et al., The use of the elevated plus maze as an assay of anxiety-related behavior in rodents, Nat Protoc. 2007; 2(2): 322-328). In the present study, inducing Alzheimer's in the animals increased their anxiety which was reduced by the administration on Gingerenone A (Table 3).
# IL-1β = assay: Inflammatory marker IL-1β (ELISA), AlCl3 Alzheimer's model; conditions: for IL-1β: p.o. + AlCl3 (100 mg/kg, i.p.), n = 6
# Text: as §3
# [1] = system: frontal cortex and hippocampus; assay: Brain histopathology (H&E), AlCl3 Alzheimer's model; conditions: 5 mg/kg, 10 mg/kg and 20 mg/kg
# Text: as §1
smiles,measurement,setting,value
COc1cc(CC/C=C/C(=O)CCc2ccc(O)c(OC)c2)ccc1O [Gingerenone A],histopathology of substantia nigra,"substantia nigra; 5 mg/kg, FIG. 12",both normal [FIG. 12A—Arrow] and degenerative neuronal cells having dark nucleus with mild basophilic cytoplasm [FIG. 12B—Arrow] and focal reactive microgliosis. Scant inflammation was noted at places. The neuropils had focal vacuoles
same,histopathology of substantia nigra,"substantia nigra; 10 mg/kg, FIG. 13",both normal [FIG. 13A—Arrow] and degenerative neuronal cells having variable darkly stained nucleus [FIG. 13B—Arrow] with mild basophilic cytoplasm and scant inflammation
same,histopathology of substantia nigra,"substantia nigra; 20 mg/kg, FIG. 14",both normal [FIG. 14A—Arrow] and degenerative neuronal cells having variable darkly stained nucleus [14B—Arrow] with mild basophilic cytoplasm and scant inflammation
same,Dopamine,Dopamine; 5 mg/kg,0.124 ± 0.007 µg/mL
same,Dopamine,Dopamine; 10 mg/kg,0.142 ± 0.011 µg/mL
same,Dopamine,Dopamine; 20 mg/kg,0.141 ± 0.011 µg/mL
same,dopamine levels (in words),"Dopamine; reserpine model, Table 14",increased
same,Fibrinogen,Fibrinogen; 5 mg/kg,22.80 ± 0.738 ng/mL
same,Fibrinogen,Fibrinogen; 10 mg/kg,19.05 ± 0.232 ng/mL
same,Fibrinogen,Fibrinogen; 20 mg/kg,16.65 ± 0.431 ng/mL
same,fibrinogen (in words),"Fibrinogen; AlCl3 model, Table 9",significantly reduced
same,EPM at 16th day Transfer Latency,Alzheimer's disease; 5 mg/kg,25.70 ± 0.88 s
same,EPM at 17th day Transfer Latency,Alzheimer's disease; 5 mg/kg,25.21 ± 1.04 s
same,EPM at 16th day Transfer Latency,Alzheimer's disease; 10 mg/kg,21.76 ± 1.03 s
same,EPM at 17th day Transfer Latency,Alzheimer's disease; 10 mg/kg,19.37 ± 0.47 s
same,EPM at 16th day Transfer Latency,Alzheimer's disease; 20 mg/kg,19.38 ± 0.87 s
same,EPM at 17th day Transfer Latency,Alzheimer's disease; 20 mg/kg,18.59 ± 0.86 s
same,anxiety in EPM (in words),"Alzheimer's disease; AlCl3 model, Table 3",reduced
same,IL-1β,IL-1β; 5 mg/kg,97.92 pg/mL
same,IL-1β,IL-1β; 10 mg/kg,84.90* pg/ml
same,IL-1β,IL-1β; 20 mg/kg,80.65** pg/ml
same,IL-1β (in words),"IL-1β; AlCl3 model, Table 9",significantly reduced
same,histopathology of frontal cortex,"[1]; FIG. 5A, 6A, 7A","intact pyramidal cells having round to oval vesicular nucleus with abundant cytoplasm, neuroglial cells, granular cells and intact blood vessels with degenerated cells [mild to moderate] with dystrophic changes having shrunken and hyperchromatic nuclei and without inflammation"
same,"histopathology of hippocampus (CA1, CA2, CA3)","[1]; FIG. 5B-D, 6B-D, 7B-D",intact architecture consisting of Cornu Ammonis [CA] and dentate gyrus with compact layers of pyramidal cells having vesicular nuclei and moderate cytoplasm without shrinkage and necrosis
